Test [1] concerns Pyricularia oryzae. The test can be described thus: microbe, parasite or virus in culture. It counts as cell-based. The conditions noted are these: for Observed efficacy: single active.
The subject of test [2] is Colletotrichum orbiculare. The test can be described thus: Activity against Colletotrichum orbiculare in the microtiterplate test (COLLLA). It counts as cell-based. The conditions noted are these: single active.
The test system of test [3] is Staphylococcus aureus. The note with it: clinically relevant fungi and gram-positive bacteria such a Staphylococcus aureus; cited from earlier work.
Test [4] has as its system Sclerotinia sclerotiorum. The test can be described thus: Activity against Sclerotinia sclerotiorum in the microtiterplate test (SCLESC). The format is cell-based. The note with it: single active.
In test [5] the test system is Botrytis cinerea. The test can be described thus: Activity against grey mold Botrytis cinerea in the microtiterplate test (BOTRCI). The format is cell-based. The conditions noted are these: single active.
Setting [6] is: Pyricularia oryzae, 168 h, read-out: Observed efficacy.

Take `CC(C)[C@H](NC(=O)O)C(=O)N[C@H](C)c1nc2ccc(F)cc2s1` [Benthiavalicarb, benthiavalicarb]: the Observed efficacy is given as 0 in test [1] (4 ppm) and 8 in test [1] (16 ppm). As to `CCCN(CC)CC1COC2(CCC(C(C)(C)C)CC2)O1` (stereo not shown) [Spiroxamin, spiroxamine], in test [1] (setting [6]), the inhibition of growth at 4 ppm was found to be 3% and the inhibition of growth at 16 ppm was 17%. For the same compound, in test [2] (16 ppm), the Observed efficacy was determined as 8.

As to `Cc1cccc(-n2nnn(C)c2=O)c1COc1ccn(-c2ccc(Cl)cc2)n1` [Methyltetraprol, metyltetraprole], the Observed efficacy is given as 16 in test [1] (0.016 ppm) and 19 in test [2] (0.063 ppm). As to fusaricidin A, the MIC value range in test [3] was 0.78 to 3.12 µg/mL. For the compound `CCC(C)(NC(=O)c1cc(Cl)c(C)c(Cl)c1)C(=O)CCl` (stereo not shown) [Zoxamid, zoxamide], the Observed efficacy in test [4] (1 ppm) was 0; in test [2] (1 ppm), 0; in test [5] (1 ppm) it was 11. The inhibition of growth at 4 ppm in test [1] (setting [6]) turned out to be 39%. As to `COC(=O)CC(NC(=O)[C@@H](NC(=O)OC(C)C)C(C)C)c1ccc(Cl)cc1` (stereo partly shown) [Valifenalat, valifenalate], the Observed efficacy in test [1] (4 ppm) worked out at 1. `Cc1cc(C(F)(F)F)nn1CC(=O)N1CCC(c2nc(C3=NOC(c4c(F)cccc4F)C3)cs2)CC1` (stereo not shown) [Oxathiapiprolin, oxathiapiprolin]: the Observed efficacy in test [5] (16 ppm) is 11.

As to `Cc1c(Br)c2ccc(F)cc2n1S(=O)(=O)c1ncn(S(=O)(=O)N(C)C)n1` [Amisulbrom, amisulbrom], the Observed efficacy in test [1] (1 ppm) is given as 3; in test [1] (4 ppm), 11. Take `O=[N+]([O-])c1cc(C(F)(F)F)c(Cl)c([N+](=O)[O-])c1Nc1ncc(C(F)(F)F)cc1Cl` [Fluazinam, fluazinam]: the inhibition of growth at 0.063 ppm in test [1] (setting [6]) is 8%. As for `Cc1ccc(-c2c(Cl)nc(C#N)n2S(=O)(=O)N(C)C)cc1` [Cyazofamid, cyazofamid], in test [1] (setting [6]), the inhibition of growth at 0.25 ppm stood at 6% and the inhibition of growth at 1 ppm turned out to be 16%. Compound `O=C(NCc1ncc(C(F)(F)F)cc1Cl)c1c(Cl)cccc1Cl` [Fluopicolid, fluopicolide] came in with an Observed efficacy in test [1] (1 ppm) of 2. Compound mancozeb returned an Observed efficacy in test [1] (0.25 ppm) of 5. Regarding `C#CCOc1ccc(CCNC(=O)C(OCC#C)c2ccc(Cl)cc2)cc1OC` (stereo not shown) [Mandipropamid, mandipropamid], the Observed efficacy is 29 in test [4] (63 ppm), 7 in test [1] (16 ppm) and 16 in test [5] (63 ppm). metiram gave an Observed efficacy in test [1] (16 ppm) of 17.

For `N#Cc1sc2c(=O)c3ccccc3c(=O)c=2sc1C#N` [Dithianon, dithianon], the Observed efficacy is recorded as 57 in test [4] (1 ppm) and 0 in test [2] (0.063 ppm). In the case of `CO/N=C(/C1=NOCCO1)c1ccccc1Oc1ncnc(Oc2ccccc2Cl)c1F` [Fluoxastrobin, fluoxastrobin], in test [1] (setting [6]), the inhibition of growth at 0.016 ppm worked out at 8%. In test [1] (4 ppm), `CCCCCCCCc1c(CC)nc2ncnn2c1N` [Ametoctradin, ametoctradin] gave an Observed efficacy of 12. On the same count and under the same terms, the result for fosetyl-aluminium reads 4. For `CCNC(=O)NC(=O)/C(C#N)=N/OC` [Cymoxanil, cymoxanil], in test [1] (setting [6]), the inhibition of growth at 16 ppm came out at 3% and the inhibition of growth at 63 ppm came out at 11%.

Consider `Cc1ccc(C(C)NC(=O)[C@@H](NC(=O)OC(C)C)C(C)C)cc1` (stereo partly shown) [Iprovalicarb, iprovalicarb], for which the Observed efficacy in test [1] (1 ppm) is reported as 8; in test [1] (4 ppm), 17. On to `O=C(Nc1ccccc1-c1ccc(Cl)cc1)c1cccnc1Cl` [Boscalid, boscalid], for which the inhibition of growth at 1 ppm in test [1] (setting [6]) stood at 5%. Take `COc1cc(C)c(C(=O)c2c(OC)ncc(Cl)c2C)c(OC)c1OC` [Pyriofenon, pyriofenone]: the Observed efficacy is reported as 6 in test [1] (4 ppm), 18 in test [1] (16 ppm), 20 in test [2] (16 ppm) and 12 in test [5] (16 ppm). In turn, `Cn1cc(C(=O)Nc2ccccc2-c2cc(F)c(F)c(F)c2)c(C(F)F)n1` [Fluxapyroxad, fluxapyroxad] returned an Observed efficacy in test [1] (0.016 ppm) of 3.

With `CON=C(C(=O)OC)c1ccccc1CON=C(C)c1cccc(C(F)(F)F)c1` [Trifloxystrobin, trifloxystrobin], the Observed efficacy in test [4] (0.063 ppm) is reported as 41; in test [5] (0.063 ppm), 0.

In the case of `COc1cc(C)c(C(=O)c2c(OC)ccc(Br)c2C)c(OC)c1OC` [Metrafenon, metrafenone], the inhibition of growth at 0.25 ppm in test [1] (setting [6]) was found to be 3%.

(Values after patent US20240065271A1, “MIXTURES AND COMPOSITIONS COMPRISING FUSARICIDIN A, FUSARICIDIN B AND FUNGICIDES” (BASF SE, priority 2020, published 2024).)
